Data taken from ChEMBL document CHEMBL5352381, “Design and development of a novel series of oral bivalent BET inhibitors with potent anticancer activities” (Eur J Med Chem, 2022).
pIC50: −log10 of the molar value.

Experiments:
[1] = AUClast in CD-1 mouse at 10 mg/kg, po; format: ADME, organism-based; design: dose 10 mg/kg, route po; settings: in vivo
[2] = Tmax in CD-1 mouse at 10 mg/kg, po; format: ADME, organism-based; settings: in vivo
[3] = Observed MRT infinity in CD-1 mouse at 10 mg/kg, po; format: ADME, organism-based; settings: in vivo
[4] = Half life in CD-1 mouse at 10 mg/kg, po; format: ADME, organism-based; settings: in vivo
[5] = Observed AUC infinity in CD-1 mouse at 10 mg/kg, po; format: ADME, organism-based; design: dose 10 mg/kg, route po; settings: in vivo
[6] = Cmax in CD-1 mouse at 10 mg/kg, po; format: ADME, organism-based; design: dose 10 mg/kg, route po; settings: in vivo
MM1.S [7] = assay: Antiproliferative activity against human MM1.S cells incubated for 72 hrs by sulforhodamine B based cell counting kit-8 assay; format: functional
Ty-82 = assay: Antiproliferative activity against human Ty-82 cells incubated for 72 hrs by sulforhodamine B based cell counting kit-8 assay; format: functional; settings: TY82, 72 h
[8] = Toxicity in BALB/c mouse xenografted with human MM1.S assessed body weight loss treated at 1.5 mg/kg, po qd for 10 days; format: organism-based; settings: in vivo, 240 h, time 10 day
MM1.S [9] = assay: Antitumor activity against human MM1.S cells xenografted in BALB/c nude mouse assessed growth inhibition treated at 0.5 mg/kg, po qd for 21 days relative to control; format: functional; settings: 504 h, time 21 day, read-out: GI
MM1.S [10] = assay: Antitumor activity against human MM1.S cells xenografted in BALB/c nude mouse assessed growth inhibition treated at 1.5 mg/kg, po qd for 10 days adjusted to qod from day 11 to 21 due to body weight loss relative to control; format: functional; settings: 504 h, time 21 day, read-out: GI
[11] = Metabolic stability in human liver microsomes assessed as half life; format: ADME, Microsome
[12] = Metabolic stability in dog liver microsomes assessed as half life; format: ADME, Canis lupus familiaris, Microsome
[13] = Metabolic stability in human liver microsomes assessed as clearance; format: ADME, Microsome; settings: read-out: CLH
[14] = Metabolic stability in mouse liver microsomes assessed as half life; format: ADME, Microsome
[15] = Metabolic stability in dog liver microsomes assessed as clearance; format: ADME, Canis lupus familiaris, Microsome; settings: read-out: CLH
[16] = Metabolic stability in mouse liver microsomes assessed as clearance; format: ADME, Microsome; settings: read-out: CLH
MV4-11 = assay: Antiproliferative activity against human MV4-11 cells; format: functional, cell-based
[17] = target: Bromodomain-containing protein 4 (Homo sapiens, UniProt O60885); assay: Inhibition of full length BRD4 (unknown origin) transfected in HEK293 cells incubated for 20 hrs measured by NanoBRET BRD4/Histone H3.3 interaction assay kit; format: cell-based

Compound | AUC(0-t) [1] [ng·h/mL] | Tmax [2] [h] | MRT [3] [h] | half-life [4] [h] | AUC(0-inf) [5] [ng·h/mL] | Cmax [6] [ng/mL] | pIC50 (MM1.S [7]) | pIC50 (Ty-82) | other results
Cc1ccc(-n2nc(C(=O)N(C)CCN(C)C(=O)c3nc(-c4ccc5c(c4)N(C4CCCC4)[C@H](C)C(=O)N5C)n(-c4ccc(C)cc4)n3)nc2-c2ccc3c(c2)N(C2CCCC2)[C@H](C)C(=O)N3C)cc1 | 124 | 0.25 | 1.07 | 0.49 | 129 | 264 |  |  | 
Cc1ccc(-n2nc(C(=O)N[C@@H]3CCCC[C@H]3NC(=O)c3nc(-c4ccc5c(c4)N(C4CCCC4)[C@H](C)C(=O)N5C)n(-c4ccc(C)cc4)n3)nc2-c2ccc3c(c2)N(C2CCCC2)[C@H](C)C(=O)N3C)cc1 | 205 | 2.67 | 11.2 | 0.1 | 278 | 33.7 |  |  | 
Cc1ccc(-n2nc(C(=O)N3C[C@H](C)N(C(=O)c4nc(-c5ccc6c(c5)N(C5CCCC5)[C@H](C)C(=O)N6C)n(-c5ccc(C)cc5C)n4)C[C@H]3C)nc2-c2ccc3c(c2)N(C2CCCC2)[C@H](C)C(=O)N3C)c(C)c1 |  |  |  |  |  |  | 9.54 | 9.12 | 
Cc1ccc(-n2nc(C(=O)N3C[C@H](C)N(C(=O)c4nc(-c5ccc6c(c5)N(Cc5ccccc5)[C@H](C)C(=O)N6C)n(-c5ccc(C)cc5)n4)C[C@H]3C)nc2-c2ccc3c(c2)N(Cc2ccccc2)[C@H](C)C(=O)N3C)cc1 |  |  |  |  |  |  | 8.75 | 8.95 | 
Cc1ccc(-n2nc(C(=O)N3C[C@H](C)N(C(=O)c4nc(-c5ccc6c(c5)N(C5CCCC5)[C@H](C)C(=O)N6C)n(-c5ccc(C)cc5)n4)C[C@H]3C)nc2-c2ccc3c(c2)N(C2CCCC2)[C@H](C)C(=O)N3C)cc1 | 4570 | 2.33 | 3.82 | 0.19 | 4620 | 1340 |  |  | Activity [8]: Toxic; inhibition in vivo at 0.5 mg/kg (MM1.S [9]): 66.5%; inhibition in vivo at 1.5 mg/kg (MM1.S [10]): 91.5%
Cc1ccc(-n2nc(C(=O)NCCNC(=O)c3nc(-c4ccc5c(c4)N(C4CCCC4)[C@H](C)C(=O)N5C)n(-c4ccc(C)cc4)n3)nc2-c2ccc3c(c2)N(C2CCCC2)[C@H](C)C(=O)N3C)cc1 |  | 2.76 |  |  |  | 33.7 |  |  | 
Cc1ccc(-n2nc(C(=O)N3C[C@H](C)N(C(=O)c4nc(-c5ccc6c(c5)N(C)[C@H](C)C(=O)N6C)n(-c5ccc(C)cc5)n4)C[C@H]3C)nc2-c2ccc3c(c2)N(C)[C@H](C)C(=O)N3C)cc1 |  |  |  |  |  |  |  |  | half-life [11]: 3.62 h; half-life [12]: 3.02 h; microsomal CLint [13]: 6.4 µL/min/mg; half-life [14]: 1.84 h; microsomal CLint [15]: 7.6 µL/min/mg; microsomal CLint [16]: 12.6 µL/min/mg
Cc1sc2c(c1C)C(c1ccc(Cl)cc1)=NC(CC(=O)OC(C)(C)C)c1nnc(C)n1-2 (centres undefined) |  |  |  |  |  |  |  |  | pIC50 (MV4-11): 7.14
Cc1ccc(-n2nc(C(=O)N3CCNCC3)nc2-c2ccc3c(c2)N(C2CCCC2)[C@H](C)C(=O)N3C)cc1 |  |  |  |  |  |  | 7.32 | 7.62 | pIC50 [17]: 7.28
Cc1ccc(-n2nc(C(=O)N3CC4(C3)CN(C(=O)c3nc(-c5ccc6c(c5)N(C5CCCC5)[C@H](C)C(=O)N6C)n(-c5ccc(C)cc5)n3)C4)nc2-c2ccc3c(c2)N(C2CCCC2)[C@H](C)C(=O)N3C)cc1 |  |  |  |  |  |  | 7.90 | 7.12 | 
